Measured values from publication PMC10548512 (Chemical Science, 2023).

Tested on: H1N1pdm09 virus (A/Netherlands/602/2009) I375F mutant
Conditions: 1 h

Question: With `CC[C@H](C)[C@@H]1NC(=O)[C@H](CS)NC(=O)[C@H](CO)NC(=O)[C@H](CCCNC(=N)N)NC(=O)[C@H](CCCNC(=N)N)NC(=O)[C@H](Cc2ccc(O)cc2)NC(=O)[C@H](CCC(N)=O)NC(=O)[C@H](Cc2ccccc2)NC(=O)[C@H](CC(N)=O)NC(=O)[C@H](CC(C)C)NC(=O)[C@@H]2CSC(=N2)c2cc(ccn2)C[C@@H](C(=O)NCC(N)=O)NC(=O)[C@H](CC(N)=O)NC(=O)[C@H](CC(C)C)NC(=O)[C@H]([C@@H](C)CC)NC(=O)[C@H](CC(N)=O)NC(=O)[C@H](CC(C)C)NC1=O` [M3] as the compound, how does the IC50 read?
Answer: 364 nM
